Test results from US20250215012A1, “IKZF2 DEGRADERS AND USES THEREOF” (REGENTS OF THE UNIVERSITY OF MICHIGAN, priority 2022, published 2025).

Target: IKZF2 (Homo sapiens (Human), UniProt Q96SW2+Q9UKS7)
Assay: IKZF2 HiBiT Assay (Jurkat-IKZF2-HiBiT cell line)
Format: cell-based
Conditions: Jurkat-IKZF2-HiBiT cells, 24 hours; for DC50: read-out: HiBit assay degradation analysis DC50; for Dmax: read-out: HiBit assay degradation analysis Dmax
Procedure, shortened: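 Jurkat cells carrying HiBiT-tagged IKZF2 were exposed to serially diluted compound for 24 h at 37 °C. Remaining IKZF2 was measured by Nano-Glo HiBiT lytic luminescence after 10-20 min at room temperature. Signal was normalized to DMSO, and IC50 came from a four-parameter variable-slope fit.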

IKZF2, sequence (Q9UKS7 whole entry): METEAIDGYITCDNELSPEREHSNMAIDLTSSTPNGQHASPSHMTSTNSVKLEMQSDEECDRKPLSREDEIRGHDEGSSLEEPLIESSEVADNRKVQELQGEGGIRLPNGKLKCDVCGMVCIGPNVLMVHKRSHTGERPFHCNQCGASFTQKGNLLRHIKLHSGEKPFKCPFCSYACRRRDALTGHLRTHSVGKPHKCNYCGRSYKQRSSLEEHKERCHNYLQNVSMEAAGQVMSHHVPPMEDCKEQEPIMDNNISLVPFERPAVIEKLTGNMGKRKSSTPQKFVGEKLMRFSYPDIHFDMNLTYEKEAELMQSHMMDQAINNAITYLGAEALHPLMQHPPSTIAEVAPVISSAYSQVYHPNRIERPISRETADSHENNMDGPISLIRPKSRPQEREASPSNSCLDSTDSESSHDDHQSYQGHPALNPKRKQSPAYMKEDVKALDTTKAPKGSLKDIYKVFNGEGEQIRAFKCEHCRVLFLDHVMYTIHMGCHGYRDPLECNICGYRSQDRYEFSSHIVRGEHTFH
IKZF2, sequence (Q96SW2 whole entry): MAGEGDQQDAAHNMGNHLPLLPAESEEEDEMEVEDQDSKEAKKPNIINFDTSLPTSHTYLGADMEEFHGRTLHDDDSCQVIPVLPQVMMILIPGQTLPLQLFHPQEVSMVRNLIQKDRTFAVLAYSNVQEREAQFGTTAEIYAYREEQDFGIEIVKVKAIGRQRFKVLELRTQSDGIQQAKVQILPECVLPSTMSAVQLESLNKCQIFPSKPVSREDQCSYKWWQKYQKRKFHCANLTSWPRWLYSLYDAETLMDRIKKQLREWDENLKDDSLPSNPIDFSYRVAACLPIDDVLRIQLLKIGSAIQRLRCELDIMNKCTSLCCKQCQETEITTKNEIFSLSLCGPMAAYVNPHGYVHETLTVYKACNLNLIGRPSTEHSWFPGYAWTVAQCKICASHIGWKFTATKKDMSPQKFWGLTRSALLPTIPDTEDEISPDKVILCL
IKZF2, sequence (Q16531 whole entry partner): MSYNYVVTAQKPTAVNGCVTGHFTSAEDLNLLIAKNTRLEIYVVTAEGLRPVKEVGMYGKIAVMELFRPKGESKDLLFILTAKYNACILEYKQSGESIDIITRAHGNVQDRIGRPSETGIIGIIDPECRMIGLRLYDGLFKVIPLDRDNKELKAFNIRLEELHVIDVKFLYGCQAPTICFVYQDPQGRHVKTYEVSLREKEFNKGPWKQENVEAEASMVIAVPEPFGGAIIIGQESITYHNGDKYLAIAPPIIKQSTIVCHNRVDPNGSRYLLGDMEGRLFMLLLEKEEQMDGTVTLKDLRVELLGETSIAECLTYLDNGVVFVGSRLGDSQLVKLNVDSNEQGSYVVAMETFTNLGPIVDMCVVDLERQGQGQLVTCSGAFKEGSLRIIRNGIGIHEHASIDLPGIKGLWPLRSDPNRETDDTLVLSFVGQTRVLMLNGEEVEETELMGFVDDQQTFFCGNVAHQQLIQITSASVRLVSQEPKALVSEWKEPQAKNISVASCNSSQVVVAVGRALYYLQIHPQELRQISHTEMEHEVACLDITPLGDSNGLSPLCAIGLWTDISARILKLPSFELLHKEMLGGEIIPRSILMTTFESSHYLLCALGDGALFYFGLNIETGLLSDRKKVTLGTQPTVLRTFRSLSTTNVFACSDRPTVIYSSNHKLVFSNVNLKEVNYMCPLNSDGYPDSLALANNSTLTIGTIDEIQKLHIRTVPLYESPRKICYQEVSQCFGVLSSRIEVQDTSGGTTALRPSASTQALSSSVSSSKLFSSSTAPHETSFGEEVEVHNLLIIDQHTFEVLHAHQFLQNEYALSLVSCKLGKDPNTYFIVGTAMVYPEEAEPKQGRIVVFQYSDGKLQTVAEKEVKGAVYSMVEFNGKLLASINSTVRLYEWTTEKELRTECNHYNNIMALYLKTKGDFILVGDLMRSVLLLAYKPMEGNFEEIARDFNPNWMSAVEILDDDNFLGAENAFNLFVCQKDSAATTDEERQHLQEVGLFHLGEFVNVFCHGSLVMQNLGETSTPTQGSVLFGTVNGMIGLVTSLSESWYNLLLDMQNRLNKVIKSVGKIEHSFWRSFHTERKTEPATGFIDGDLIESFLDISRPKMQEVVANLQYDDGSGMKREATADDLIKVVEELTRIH

| SMILES | DC50 | Dmax |
| --- | --- | --- |
| Cn1cc(-c2ccc(CN3CCC4(CC3)COc3c4ccc4c3CN(C3CCC(=O)NC3=O)C4=O)s2)cn1 (stereo not drawn) [Compound A190, 3-(1′-((5-(1-methyl-1H-pyrazol-4-yl)thiophen-2-yl)methyl)-6-oxo-6,8-dihydro-2H,7H-spiro[furo[2,3-e]isoindole-3,4′-piperidin]-7-yl)piperidine-2,6-dione] | > 0.5 µM | 40 to 60% |
| CC(C)c1ccc(CN2CCC3(CC2)COc2c3ccc3c2CN(C2CCC(=O)NC2=O)C3=O)cc1 (stereo not drawn) [Compound A191, 3-(1′-(4-isopropylbenzyl)-6-oxo-6,8-dihydro-2H,7H-spiro[furo[2,3-e]isoindole-3,4′-piperidin]-7-yl)piperidine-2,6-dione] | > 0.5 µM | < 40% |
| O=C1CCC(N2Cc3c(ccc4c3OCC43CCN(Cc4ccc(F)cc4)CC3)C2=O)C(=O)N1 (stereo not drawn) [Compound A192, 3-(1′-(4-fluorobenzyl)-6-oxo-6,8-dihydro-2H,7H-spiro[furo[2,3-e]isoindole-3,4′-piperidin]-7-yl)piperidine-2,6-dione] | > 0.5 µM | 40 to 60% |
| O=C1CCC(N2Cc3c(ccc4c3OCC43CCN(Cc4ccc5c(c4)OC(F)(F)O5)CC3)C2=O)C(=O)N1 (stereo not drawn) [Compound A193, 3-(1′-((2,2-difluorobenzo[d][1,3]dioxol-5-yl)methyl)-6-oxo-6,8-dihydro-2H,7H-spiro[furo[2,3-e]isoindole-3,4′-piperidin]-7-yl)piperidine-2,6-dione] | > 0.5 µM | < 40% |
| O=C1CCC(N2Cc3c(ccc4c3OCC43CCN(Cc4ccc(C(F)(F)F)cc4)CC3)C2=O)C(=O)N1 (stereo not drawn) [Compound A194, 3-(6-oxo-1′-(4-(trifluoromethyl)benzyl)-6,8-dihydro-2H,7H-spiro[furo[2,3-e]isoindole-3,4′-piperidin]-7-yl)piperidine-2,6-dione] | > 0.5 µM | < 40% |
| N#Cc1ccc(CN2CCC3(CC2)COc2c3ccc3c2CN(C2CCC(=O)NC2=O)C3=O)cc1 (stereo not drawn) [Compound A195, 4-((7-(2,6-dioxopiperidin-3-yl)-6-oxo-7,8-dihydro-2H,6H-spiro[furo[2,3-e]isoindole-3,4′-piperidin]-1′-yl)methyl)benzonitrile] | > 0.5 µM | < 40% |
| N#CCc1ccc(CN2CCC3(CC2)COc2c3ccc3c2CN(C2CCC(=O)NC2=O)C3=O)cc1 (stereo not drawn) [Compound A196, 2-(4-((7-(2,6-dioxopiperidin-3-yl)-6-oxo-7,8-dihydro-2H,6H-spiro[furo[2,3-e]isoindole-3,4′-piperidin]-1′-yl)methyl)phenyl)acetonitrile] | 0.05 to 0.2 µM | 60 to 80% |
| O=C1CCC(N2Cc3c(ccc4c3OCC43CCN(Cc4ccc(OC(F)F)cc4)CC3)C2=O)C(=O)N1 (stereo not drawn) [Compound A197, 3-(1′-(4-(difluoromethoxy)benzyl)-6-oxo-6,8-dihydro-2H,7H-spiro[furo[2,3-e]isoindole-3,4′-piperidin]-7-yl)piperidine-2,6-dione] | > 0.5 µM | < 40% |
| O=C1CCC(N2Cc3c(ccc4c3OCC43CCN(Cc4ccc5[nH]ncc5c4)CC3)C2=O)C(=O)N1 (stereo not drawn) [Compound A198, 3-(1′-((1H-indazol-5-yl)methyl)-6-oxo-6,8-dihydro-2H,7H-spiro[furo[2,3-e]isoindole-3,4′-piperidin]-7-yl)piperidine-2,6-dione] | 0.2 to 0.5 µM | 60 to 80% |
| O=C1CCC(N2Cc3c(ccc4c3OCC43CCN(Cc4cccc5c4OCCO5)CC3)C2=O)C(=O)N1 (stereo not drawn) [Compound A199, 3-(1′-((2,3-dihydrobenzo[b][1,4]dioxin-5-yl)methyl)-6-oxo-6,8-dihydro-2H,7H-spiro[furo[2,3-e]isoindole-3,4′-piperidin]-7-yl)piperidine-2,6-dione] | > 0.5 µM | 60 to 80% |
| CC(C)(O)c1ccc(CN2CCC3(CC2)COc2c3ccc3c2CN(C2CCC(=O)NC2=O)C3=O)cc1 (stereo not drawn) [Compound A200, 3-(1′-(4-(2-hydroxypropan-2-yl)benzyl)-6-oxo-6,8-dihydro-2H,7H-spiro[furo[2,3-e]isoindole-3,4′-piperidin]-7-yl)piperidine-2,6-dione] | > 0.5 µM | < 40% |
| CN(C)C(=O)c1ccc(CN2CCC3(CC2)COc2c3ccc3c2CN(C2CCC(=O)NC2=O)C3=O)cc1 (stereo not drawn) [Compound A201, 4-((7-(2,6-dioxopiperidin-3-yl)-6-oxo-7,8-dihydro-2H,6H-spiro[furo[2,3-e]isoindole-3,4′-piperidin]-1′-yl)methyl)-N,N-dimethylbenzamide] | > 0.5 µM | < 40% |
| CCOc1ccc(CN2CCC3(CC2)COc2c3ccc3c2CN(C2CCC(=O)NC2=O)C3=O)cn1 (stereo not drawn) [Compound A202, 3-(1′-((6-ethoxypyridin-3-yl)methyl)-6-oxo-6,8-dihydro-2H,7H-spiro[furo[2,3-e]isoindole-3,4′-piperidin]-7-yl)piperidine-2,6-dione] | > 0.5 µM | < 40% |
| CC(C)c1cccc(CN2CCC3(CC2)COc2c3ccc3c2CN(C2CCC(=O)NC2=O)C3=O)c1 (stereo not drawn) [Compound A203, 3-(1′-(3-isopropylbenzyl)-6-oxo-6,8-dihydro-2H,7H-spiro[furo[2,3-e]isoindole-3,4′-piperidin]-7-yl)piperidine-2,6-dione] | > 0.5 µM | < 40% |
| O=C1CCC(N2Cc3c(ccc4c3OCC43CCN(Cc4cccc(C5CC5)c4)CC3)C2=O)C(=O)N1 (stereo not drawn) [Compound A204, 3-(1′-(3-cyclopropylbenzyl)-6-oxo-6,8-dihydro-2H,7H-spiro[furo[2,3-e]isoindole-3,4′-piperidin]-7-yl)piperidine-2,6-dione] | > 0.5 µM | 40 to 60% |
| O=C1CCC(N2Cc3c(ccc4c3OCC43CCN(Cc4ccc(C5CC5)cc4)CC3)C2=O)C(=O)N1 (stereo not drawn) [Compound A205, 3-(1′-(4-cyclopropylbenzyl)-6-oxo-6,8-dihydro-2H,7H-spiro[furo[2,3-e]isoindole-3,4′-piperidin]-7-yl)piperidine-2,6-dione] | 0.2 to 0.5 µM | 40 to 60% |
| O=C1CCC(N2Cc3c(ccc4c3OCC43CCN(Cc4ncccn4)CC3)C2=O)C(=O)N1 (stereo not drawn) [Compound A206, 3-(6-oxo-1′-(pyrimidin-2-ylmethyl)-6,8-dihydro-2H,7H-spiro[furo[2,3-e]isoindole-3,4′-piperidin]-7-yl)piperidine-2,6-dione] | > 0.5 µM | < 40% |
| O=C1CCC(N2Cc3c(ccc4c3OCC43CCN(Cc4cccc5c4CCC5)CC3)C2=O)C(=O)N1 (stereo not drawn) [Compound A207, 3-(1′-((2,3-dihydro-1H-inden-4-yl)methyl)-6-oxo-6,8-dihydro-2H,7H-spiro[furo[2,3-e]isoindole-3,4′-piperidin]-7-yl)piperidine-2,6-dione] | > 0.5 µM | < 40% |
| O=C1CCC(N2Cc3c(ccc4c3OCC43CCN(Cc4cccc5c4CCCC5)CC3)C2=O)C(=O)N1 (stereo not drawn) [Compound A208, 3-(6-oxo-1′-((5,6,7,8-tetrahydronaphthalen-1-yl)methyl)-6,8-dihydro-2H,7H-spiro[furo[2,3-e]isoindole-3,4′-piperidin]-7-yl)piperidine-2,6-dione] | < 0.05 µM | 60 to 80% |
| O=C1CCC(N2Cc3c(ccc4c3OCC43CCN(Cc4cnn(Cc5ccccc5)c4)CC3)C2=O)C(=O)N1 (stereo not drawn) [Compound A209, 3-(1′-((1-benzyl-1H-pyrazol-4-yl)methyl)-6-oxo-6,8-dihydro-2H,7H-spiro[furo[2,3-e]isoindole-3,4′-piperidin]-7-yl)piperidine-2,6-dione] | < 0.05 µM | 60 to 80% |
| CN(C)S(=O)(=O)c1ccc(CN2CCC3(CC2)COc2c3ccc3c2CN(C2CCC(=O)NC2=O)C3=O)cc1 (stereo not drawn) [Compound A210, 4-((7-(2,6-dioxopiperidin-3-yl)-6-oxo-7,8-dihydro-2H,6H-spiro[furo[2,3-e]isoindole-3,4′-piperidin]-1′-yl)methyl)-N,N-dimethylbenzenesulfonamide] | > 0.5 µM | < 40% |
| COc1ccc(CN2CCC3(CC2)COc2c3ccc3c2CN(C2CCC(=O)NC2=O)C3=O)cc1 (stereo not drawn) [Compound A211, 3-(1′-(4-methoxybenzyl)-6-oxo-6,8-dihydro-2H,7H-spiro[furo[2,3-e]isoindole-3,4′-piperidin]-7-yl)piperidine-2,6-dione] | > 0.5 µM | < 40% |
| COc1cccc(CN2CCC3(CC2)COc2c3ccc3c2CN(C2CCC(=O)NC2=O)C3=O)c1 (stereo not drawn) [Compound A212, 3-(1′-(3-methoxybenzyl)-6-oxo-6,8-dihydro-2H,7H-spiro[furo[2,3-e]isoindole-3,4′-piperidin]-7-yl)piperidine-2,6-dione] | > 0.5 µM | 40 to 60% |
| Cc1cccc(CN2CCC3(CC2)COc2c3ccc3c2CN(C2CCC(=O)NC2=O)C3=O)c1 (stereo not drawn) [Compound A213, 3-(1′-(3-methylbenzyl)-6-oxo-6,8-dihydro-2H,7H-spiro[furo[2,3-e]isoindole-3,4′-piperidin]-7-yl)piperidine-2,6-dione] | < 0.05 µM | 60 to 80% |
| O=C1CCC(N2Cc3c(ccc4c3OCC43CCN(Cc4ccccc4Cl)CC3)C2=O)C(=O)N1 (stereo not drawn) [Compound A214, 3-(1′-(2-chlorobenzyl)-6-oxo-6,8-dihydro-2H,7H-spiro[furo[2,3-e]isoindole-3,4′-piperidin]-7-yl)piperidine-2,6-dione] | 0.2 to 0.5 µM | 40 to 60% |
| COc1ccccc1CN1CCC2(CC1)COc1c2ccc2c1CN(C1CCC(=O)NC1=O)C2=O (stereo not drawn) [Compound A215, 3-(1′-(2-methoxybenzyl)-6-oxo-6,8-dihydro-2H,7H-spiro[furo[2,3-e]isoindole-3,4′-piperidin]-7-yl)piperidine-2,6-dione] | 0.2 to 0.5 µM | 40 to 60% |
| O=C1CCC(N2Cc3c(ccc4c3OCC43CCN(Cc4cccc(Cl)c4)CC3)C2=O)C(=O)N1 (stereo not drawn) [Compound A216, 3-(1′-(3-chlorobenzyl)-6-oxo-6,8-dihydro-2H,7H-spiro[furo[2,3-e]isoindole-3,4′-piperidin]-7-yl)piperidine-2,6-dione] | 0.05 to 0.2 µM | 60 to 80% |
